For 30 compounds, Ki results are on record in patent EP4631938A1, “NITROGEN-CONTAINING HETEROCYCLE WITH SEROTONIN RECEPTOR-BINDING ACTIVITY AND CARBOCYCLIC DERIVATIVE” (Shionogi & Co., Ltd, priority 2022, dated 2024).

Assay [1] deals with T1, human recombinant 5-HT2C receptor (Homo sapiens, UniProt P28335).
T1 construct: expressed in transfected cells; host or cells: Jump-In HEK cells (membrane preparation)
T1 sequence (P28335 33-458): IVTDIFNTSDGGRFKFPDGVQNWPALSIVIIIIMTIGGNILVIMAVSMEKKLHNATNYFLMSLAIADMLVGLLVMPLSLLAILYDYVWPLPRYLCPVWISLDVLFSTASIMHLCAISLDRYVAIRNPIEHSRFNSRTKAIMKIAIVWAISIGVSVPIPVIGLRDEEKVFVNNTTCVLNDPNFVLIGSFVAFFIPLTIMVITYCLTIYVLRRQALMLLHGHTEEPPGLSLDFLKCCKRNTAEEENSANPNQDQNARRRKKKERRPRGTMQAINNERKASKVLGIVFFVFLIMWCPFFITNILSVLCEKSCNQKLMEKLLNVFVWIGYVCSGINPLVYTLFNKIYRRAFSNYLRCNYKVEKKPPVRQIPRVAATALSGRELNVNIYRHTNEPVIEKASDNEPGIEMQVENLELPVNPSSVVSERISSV
The assay can be described thus: Test Example 2: 5-HT2C receptor binding inhibition test ([3H]-Mesulergine; non-specific ligand Serotonin HCl). Particulars: human serotonin 5-HT2C receptor binding activity. As to the method: The Kd value is calculated when the lot of the cell membrane is changed. 1 mmol/L non-specific binding calculating compound dissolved in DMSO or DMSO is previously dispensed to the microplate by 0.5 µL, and the cell membrane is diluted with an Assay buffer. The radioactive ligand solution is diluted step by step, and counts are checked with a liquid scintillator. The Assay buffer containing diluted cell membranes is dispensed by 50 µL/well into the microplate. The radioactive ligand solution is then dispensed by 50 µL/well into the microplate and the plate is sealed. The microplate is allowed to stand at 37°C for 2 hours. During this time, 50 mmol/L Tris-HCl (pH 7.4) is dispensed by 50 µL/well into the GF/B UniFilter plate and allowed to stand at 4°C for 1 hour or longer. Thereafter, filtration is performed with a Cell Harvester (PerkinElmer). The radioactive ligand solution is dispensed by 10 µL/well into empty wells of the GF/B UniFilter plate. After drying the GF/B UniFilter plate at room temperature, MicroScinti20 is dispensed by 50 µL/well into the GF/B UniFilter plate, and the plate is sealed. GF/B UniFilter plate is allowed to stand at room temperature overnight. The radioactivity of [^3H]-Mesulergine bound to the 5-HT2C receptor is measured using Microbeta2 (PerkinElmer) at a measurement time of 1 min/well. The Saturation curve is drawn from the measured value, and the Kd value is calculated from the slope of the Scatchard Plot.
A compound solution dissolved in DMSO is dispensed to a microplate by 0.5 µL, and a cell membrane and a hot ligand are each diluted with an Assay buffer. The Assay buffer containing diluted cell membrane is then dispensed by 50 µL/well into the microplate. The radioactive ligand solution is then dispensed by 50 µL/well into the microplate and the plate is sealed. The microplate is then allowed to stand at 37°C for 2 hours. During this time, 50 mmol/L Tris-HCl (pH 7.4) is dispensed by 50 µL/well into the GF/B UniFilter plate and allowed to stand at 4°C for 1 hour or longer. Thereafter, filtration is performed with a Cell Harvester (PerkinElmer). After drying the GF/B UniFilter plate at room temperature, MicroScinti20 is dispensed by 50 µL/well into the GF/B UniFilter plate, and the plate is sealed. GF/B UniFilter plate is allowed to stand at room temperature overnight. The radioactivity of [^3H]-Mesulergine bound to the 5-HT2C receptor is measured using Microbeta2 (PerkinElmer) at a measurement time of 1 min/well. Non-specific binding is calculated from the radioactivity of [^3H]-Mesulergine in the presence of 500 µmol/L Serotonin HCl of unlabeled ligand, and total binding is calculated from the radioactivity of [^3H]-Mesulergine in the absence of the compound of the present invention (Vehicle). Finally, the Ki value is calculated from the dose-response curve.
(§1) (The binding activity of the compound according to the present invention is calculated from the following binding inhibition rate (%).) Inhibition rate (%) = [1−(c−a)/(b−a)] × 100 [formula] • a; average cpm of non-specific binding • b; average cpm of total binding • c; cpm in the presence of the test compound
(§2) The compounds of the present invention were tested essentially as described above.

Assay [2] has as its target T2, human recombinant 5-HT2A receptor (Homo sapiens, UniProt P28223).
T2 construct: expressed in transfected cells; host or cells: Jump-In HEK cells (membrane preparation)
The assay is described as follows: Test Example 1-2: 5-HT2A receptor binding inhibition test ([3H]-Ketanserin; non-specific ligand Ketanserin). As to the method: The Kd value is calculated when the lot of the cell membrane is changed. 1 mmol/L non-specific binding calculating compound dissolved in DMSO or DMSO is previously dispensed to the microplate by 0.5 µL, and the cell membrane is diluted with an Assay buffer. The radioactive ligand solution is diluted step by step, and counts are checked with a liquid scintillator. The Assay buffer containing diluted cell membranes is dispensed by 50 µL/well into the microplate. The radioactive ligand solution is then dispensed by 50 µL/well into the microplate and the plate is sealed. The microplate is allowed to stand for 1.5 hours at room temperature (25°C). During this time, 50 mmol/L Tris-HCl (pH 7.4) is dispensed by 50 µL/well into the UniFilter plate and allowed to stand at 4°C for 1 hour or longer. Thereafter, filtration is performed with a Cell Harvester (PerkinElmer). The radioactive ligand solution is dispensed by 10 µL/well into empty wells of the UniFilter plate. After drying the UniFilter plate at room temperature, MicroScinti20 is dispensed by 50 µL/well into the UniFilter plate, and the plate is sealed. UniFilter plate is allowed to stand at room temperature overnight. The radioactivity of [^3H]-Ketanserin bound to the 5-HT2A receptor is measured using Microbeta2 (PerkinElmer) at a measurement time of 1 min/well. The Saturation curve is drawn from the measured value, and the Kd value is calculated from the slope of the Scatchard Plot.
A compound solution dissolved in DMSO is dispensed to a microplate by 0.5 µL, and a cell membrane and a hot ligand are each diluted with an Assay buffer. The Assay buffer containing diluted cell membrane is then dispensed by 50 µL/well into the microplate. The radioactive ligand solution is then dispensed by 50 µL/well into the microplate and the plate is sealed. Thereafter, the microplate is allowed to stand at room temperature (25°C) for 1.5 hours. During this time, 50 mmol/L Tris-HCl (pH 7.4) is dispensed by 50 µL/well into the UniFilter plate and allowed to stand at 4°C for 1 hour or longer. Thereafter, filtration is performed with a Cell Harvester (PerkinElmer). After drying the UniFilter plate at room temperature, MicroScinti20 is dispensed by 50 µL/well into the UniFilter plate, and the plate is sealed. UniFilter plate is allowed to stand at room temperature overnight. The radioactivity of [^3H]-Ketanserin bound to the 5-HT2A receptor is measured using Microbeta2 (PerkinElmer) at a measurement time of 1 min/well. Non-specific binding is calculated from the radioactivity of [^3H]-Ketanserin in the presence of 500 µmol/L Ketanserin of unlabeled ligand, and total binding is calculated from the radioactivity of [^3H]-Ketanserin in the absence of the compound of the present invention (Vehicle). Finally, the Ki value is calculated from the dose-response curve.
as §1, §2

The mark [3] stands for this setting: [3H]-Ketanserin; non-specific binding with 500 µmol/L Ketanserin; room temperature (25°C), 1.5 hours; read-out: h 5-HT2A Ki.
Setting [4] is: read-out: h 5-HT2A Ki; [3H]-Ketanserin; non-specific binding with 500 µmol/L Ketanserin; room temperature (25°C), 1.5 hours.

Where two headings read alike, the source gives them in different places.

T2 sequence (P28223 whole entry): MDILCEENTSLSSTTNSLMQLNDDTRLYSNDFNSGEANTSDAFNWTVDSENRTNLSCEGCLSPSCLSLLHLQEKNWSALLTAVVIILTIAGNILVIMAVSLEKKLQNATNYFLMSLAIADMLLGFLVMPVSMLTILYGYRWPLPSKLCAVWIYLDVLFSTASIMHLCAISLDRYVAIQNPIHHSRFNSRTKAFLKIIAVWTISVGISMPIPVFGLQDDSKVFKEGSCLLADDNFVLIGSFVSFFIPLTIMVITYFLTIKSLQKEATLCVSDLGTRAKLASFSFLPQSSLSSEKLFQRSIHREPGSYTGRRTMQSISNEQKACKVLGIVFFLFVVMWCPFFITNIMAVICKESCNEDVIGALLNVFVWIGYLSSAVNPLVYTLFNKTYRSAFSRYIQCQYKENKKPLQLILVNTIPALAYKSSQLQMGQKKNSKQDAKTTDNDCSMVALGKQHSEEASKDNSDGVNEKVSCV

With `COCc1nc(C)c(-c2cc(Nc3ncc(C4CC4(F)F)cc3Cl)ncc2OCCO)c(C)n1` (racemic) [Compound I-194], the inhibitory constant (Ki) (usually a dissociation constant, usually derived from enzyme kinetics or from competition with a known ligand) was 6.01 nM in assay [1] and 8.31 nM in assay [2] (setting [3]).
For `Cc1nc(C2CCCO2)nc(C)c1-c1cc(Nc2ncc(C(F)(F)F)cc2F)ncc1OCCO` (racemic) [Compound I-198], in that order: 9.63 nM and 5.3 nM.
For `Cc1nc(OCC2CCCO2)nc(C)c1-c1cc(Nc2ncc(C(F)(F)F)cc2Cl)ncc1OCCO` (racemic) [Compound I-214], in that order: 8.87 nM and 1.66 nM.
In the same order, the values of `Cc1nc(C2CCO2)nc(C)c1-c1cc(Nc2ncc(C(F)(F)F)cc2Cl)ncc1OCCO` (racemic) [Compound I-216] are 5.53 nM and 1.81 nM.
Regarding `Cc1nc(COC2CCCOC2)nc(C)c1-c1cc(Nc2ncc(C(F)(F)F)cc2Cl)ncc1OCCO` (racemic) [Compound I-382], the Ki in assay [1] stood at 3.43 nM; in assay [2] (setting [3]) it was 2.44 nM.
As for `CC(CO)Oc1cnc(Nc2ncc(C(F)(F)F)cc2F)cc1-c1c(Br)cnn1C` (single isomer, unassigned) [Compound I-224], in assay [2] (setting [4]), the Ki amounted to 0.521 nM.
Still for that read-out and setting: the same measure for `CC(CO)Oc1cnc(Nc2ncc(C(F)(F)F)cc2F)cc1-c1c(Br)cnn1C` (single isomer, unassigned) [Compound I-225]: 0.396 nM.
Take `Cn1ncc(Br)c1-c1cc(Nc2ncc(Cl)cn2)ccc1OCCO` [Compound I-119]: the Ki in assay [2] (setting [3]) came out at 0.315 nM.
On the same count and under the same terms, the same measure for `Cc1nc(C)c(-c2cc(Nc3ncc(C(F)(F)F)cc3F)c(F)cc2OCCO)c(C)n1` [Compound I-146]: 0.678 nM.
Turning to `Cc1cnn(C)c1-c1cc(Nc2ncc(Cl)cc2F)c(F)cc1OCCO` [Compound I-160], the Ki was 3.01 nM in assay [1] and 0.21 nM in assay [2] (setting [3]).
In the same order, the values of `Cn1ncc(Cl)c1-c1cc(Nc2ncc(C(F)(F)F)cn2)c(F)cc1OCCO` [Compound I-161] are 1.13 nM and 0.361 nM.
For `Cn1ncc(Cl)c1-c1cc(Nc2ncc(Cl)cn2)c(F)cc1OCCO` [Compound I-162], the Ki in assay [1] was 4.25 nM; in assay [2] (setting [3]) it was 0.395 nM.
In the same order, the values of `Cn1ncc(Cl)c1-c1cc(Nc2ccc(Cl)cn2)c(F)cc1OCCO` [Compound I-163] are 1.26 nM and 0.216 nM.
For `Cn1ncc(Cl)c1-c1cc(Nc2ncc(F)cc2F)c(F)cc1OCCO` [Compound I-164], in that order: 2.09 nM and 0.325 nM.
For `Cn1ncc(Br)c1-c1cc(Nc2ncc(F)cn2)c(F)cc1OCCO` [Compound I-165], the Ki amounted to 9.78 nM in assay [1] and 0.389 nM in assay [2] (setting [3]).
In the same order, the values of `Cc1nc(C)c(-c2cc(Nc3ncc(Cl)cc3F)c(F)cc2OCCO)c(C)n1` [Compound I-166] are 5.57 nM and 0.67 nM.
In the same order, the values of `Cc1nc(C)c(-c2cc(Nc3ccc(Cl)cn3)c(F)cc2OCCO)c(C)n1` [Compound I-167] are 5.37 nM and 0.511 nM.
In the same order, the values of `Cn1ncc(Br)c1-c1cc(Nc2ncc(OC(F)(F)F)cc2F)c(F)cc1OCCO` [Compound I-168] are 0.162 nM and 0.248 nM.
On to `COc1cnc(Nc2cc(-c3c(Cl)cnn3C)c(OCCO)cc2F)nc1` [Compound I-169], for which the figures for the Ki in assay [1] and in assay [2] (setting [3]) were 9.97 nM and 0.738 nM, respectively.
For `Cn1ncc(F)c1-c1cc(Nc2ccc(C(F)(F)F)cn2)c(F)cc1OCCO` [Compound I-170], in that order: 5.45 nM and 0.212 nM.
In the same order, the values of `Cn1ncc(F)c1-c1cc(Nc2ncc(Cl)cc2F)c(F)cc1OCCO` [Compound I-171] are 5.81 nM and 0.16 nM.
For the compound `Cc1cc(Cl)cnc1Nc1cc(-c2c(C)cnn2C)c(OCCO)cc1F` [Compound I-172], the Ki in assay [1] was determined as 2.49 nM; in assay [2] (setting [3]) it was 0.812 nM.
In the same order, the values of `Cc1nc(C)c(-c2cc(Nc3ncc(Cl)cc3C)c(F)cc2OCCO)c(C)n1` [Compound I-173] are 5.11 nM and 1.42 nM.
In the case of `Cc1nc(C)c(-c2cc(Nc3ncc(OC(F)(F)F)cc3F)c(F)cc2OCCO)c(C)n1` [Compound I-174], the Ki turned out to be 2.15 nM in assay [1] and 0.888 nM in assay [2] (setting [3]).
In the same order, the values of `Cc1nc(C)c(-c2cc(Nc3ncc(C(F)(F)F)cc3C)c(F)cc2OCCO)c(C)n1` [Compound I-175] are 3.19 nM and 1.92 nM.
Regarding `Cc1cc(OC(F)F)cnc1Nc1cc(-c2c(C)cnn2C)c(OCCO)cn1` [Compound I-176], the Ki is 6.81 nM in assay [1] and 0.453 nM in assay [2] (setting [3]).
Turning to `Cc1cc(OC(F)F)cnc1Nc1cc(-c2c(Br)cnn2C)c(OCCO)cn1` [Compound I-177], the Ki worked out at 0.63 nM in assay [1] and 0.331 nM in assay [2] (setting [3]).
For `Cc1cnn(C)c1-c1cc(Nc2ncc(OC(F)F)cc2F)ncc1OCCO` [Compound I-178], in that order: 3.34 nM and 0.386 nM.
In the same order, the values of `Cc1cc(OC(F)(F)F)cnc1Nc1cc(-c2c(Br)cnn2C)c(OCCO)cn1` [Compound I-179] are 0.296 nM and 0.278 nM.
On to `Cc1nc(C)c(-c2cc(Nc3ncc(OCC(F)(F)C(F)(F)F)cc3Cl)ncc2OCCO)c(C)n1` [Compound I-250], for which the Ki in assay [1] worked out at 2.43 nM.
